Measured values as given in US9637493B2, “Substituted pyrrolopyrimidines as HDM2 inhibitors” (Merck Sharp & Dohme Corp., priority 2012, dated 2017).

Target: HDM2 (Homo sapiens (Human), UniProt Q00987)
Assay: HDM2 FRET assay (inhibition of p53 peptide binding to HDM2)
Settings: truncated HDM2 residues 17 to 125, 0.5 nM; FITC labeled 8-mer peptide 3 nM; two hour incubation at room temperature
Protocol: Methods: An HDM2 FRET assay was developed to assess the compounds' inhibitory activity towards binding of p53 protein. […] (containing p53 binding surface, Science (1994) 265, 346-355), with N-terminal His and Thioredoxin tag was generated in pET32a expression vector and expressed in E. coli strain BL21(DE3)Rosetta. Protein was purified using Ni-affinity chromatography, followed by size exclusion chromatography using Superdex 75 26/60 column. […] After two hour incubation at room temperature in a humidified chamber plates were read on EnVision plate reader with the following settings: excitation: UV, […], two emission filters: 520 nm and 495 nm respectively. […] IC50 DETERMINATIONS: Dose-response curves were plotted from the inhibition data, from 10 point serial dilutions of inhibitory compounds. Concentration of compound was plotted against em520/Cem495 ratio signal. To generate IC50 values, the dose-response curves were fitted to a standard sigmoidal curve and IC50 values were derived by nonlinear regression analysis.

Chain of HDM2 (Q00987 17-125): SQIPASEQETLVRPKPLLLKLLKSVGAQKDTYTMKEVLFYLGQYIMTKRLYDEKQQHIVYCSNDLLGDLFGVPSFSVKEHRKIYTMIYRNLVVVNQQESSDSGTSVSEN

Row | SMILES | IC50
1 | C[C@H]1CC[C@H](Cn2c(C(F)c3ccccc3F)cc3nc(C(=O)O)nc(-c4cncc(Cl)c4)c32)CC1 (mixture of isomers) [Example 8.1, 4-(5-chloropyridin-3-yl)-6-[fluoro(2-fluorophenyl)methyl]-5-[(trans-4-methylcyclohexyl)methyl]-5H-pyrrolo[3,2-d]pyrimidine-2-carboxylic acid] | 3 nM
2 | Cc1ccc(F)c(-c2cc3nc(C(=O)O)nc(N[C@H](C)C4CCC4)c3n2Cc2ccc(C(F)(F)F)cc2)c1 [Example 1.1, (R)-4-((1-cyclobutylethyl)amino)-6-(2-fluoro-5-methylphenyl)-5-(4-(trifluoromethyl)benzyl)-5H-pyrrolo[3,2-d]pyrimidine-2-carboxylic acid] | 62 nM
3 | Cc1ccc(F)c(-c2cn(Cc3ccc(C(F)(F)F)cc3)c3c(N[C@H](C)C4CCC4)nc(C(=O)O)nc23)c1 [Example 1.2, (R)-4-((1-cyclobutylethyl)amino)-7-(2-fluoro-5-methylphenyl)-5-(4-(trifluoromethyl)benzyl)-5H-pyrrolo[3,2-d]pyrimidine-2-carboxylic acid] | 353 nM
4 | Cc1cccc(-c2cc3nc(C(=O)O)nc(N[C@H](C)C4CCC4)c3n2Cc2ccc(C(F)(F)F)cc2)c1 [Example 1.3, (R)-4-((1-cyclobutylethyl)amino)-6-(m-tolyl)-5-(4-(trifluoromethyl)benzyl)-5H-pyrrolo[3,2-d]pyrimidine-2-carboxylic acid] | 140 nM
5 | Cc1cccc(-c2c(C)c3nc(C(=O)O)nc(N[C@H](C)C4CCC4)c3n2Cc2ccc(C(F)(F)F)cc2)c1 [Example 1.4, (R)-4-((1-cyclobutylethyl)amino)-7-methyl-6-(m-tolyl)-5-(4-(trifluoromethyl)benzyl)-5H-pyrrolo[3,2-d]pyrimidine-2-carboxylic acid] | 130 nM
6 | COc1ccc(C)cc1-c1cc2nc(C(=O)O)nc(N[C@H](C)C3CCC3)c2n1Cc1ccc(C(F)(F)F)cc1 [Example 1.5, 4-{[(1R)-1-cyclobutylethyl]amino}-6-(2-methoxy-5-methylphenyl)-5-[4-(trifluoromethyl)benzyl]-5H-pyrrolo[3,2-d]pyrimidine-2-carboxylic acid] | 42 nM
7 | C[C@@H](Nc1nc(C(=O)O)nc2cc(-c3ccc4occc4c3)n(Cc3ccc(C(F)(F)F)cc3)c12)C1CCC1 [Example 1.6, 6-(1-benzofuran-5-yl)-4-{[(1R)-1-cyclobutylethyl]amino}-5-[4-(trifluoromethyl)benzyl]-5H-pyrrolo[3,2-d]pyrimidine-2-carboxylic acid] | 105 nM
8 | Cc1ccc(Cl)c(-c2cc3nc(C(=O)O)nc(N[C@H](C)C4CCC4)c3n2Cc2ccc(C(F)(F)F)cc2)c1 [Example 1.7, 6-(2-chloro-5-methylphenyl)-4-{[(1R)-1-cyclobutylethyl]amino}-5-[4-(trifluoromethyl)benzyl]-5H-pyrrolo[3,2-d]pyrimidine-2-carboxylic acid] | 63 nM
9 | Cc1ccc(Cl)c(-c2cn(Cc3ccc(C(F)(F)F)cc3)c3c(N[C@H](C)C4CCC4)nc(C(=O)O)nc23)c1 [Example 1.8, 7-(2-chloro-5-methylphenyl)-4-{[(1R)-1-cyclobutylethyl]amino}-5-[4-(trifluoromethyl)benzyl]-5H-pyrrolo[3,2-d]pyrimidine-2-carboxylic acid] | 712 nM
10 | Cc1ccnc(-c2cc3nc(C(=O)O)nc(N[C@H](C)C4CCC4)c3n2Cc2ccc(C(F)(F)F)cc2)c1 [Example 1.9, 4-{[(1R)-1-cyclobutylethyl]amino}-6-(4-methylpyridin-2-yl)-5-[4-(trifluoromethyl)benzyl]-5H-pyrrolo[3,2-d]pyrimidine-2-carboxylic acid] | 18 nM
11 | CC(C)c1ccnc(-c2cc3nc(C(=O)O)nc(N[C@H](C)C4CCC4)c3n2Cc2ccc(C(F)(F)F)cc2)c1 [Example 1.10, 4-{[(1R)-1-cyclobutylethyl]amino}-6-[4-(1-methylethyl)pyridin-2-yl]-5-[4-(trifluoromethyl)benzyl]-5H-pyrrolo[3,2-d]pyrimidine-2-carboxylic acid] | 26 nM
12 | Cc1c(-c2cc(C(C)C)ccn2)n(Cc2ccc(C(F)(F)F)cc2)c2c(N[C@H](C)C3CCC3)nc(C(=O)O)nc12 [Example 1.11, 4-{[(1R)-1-cyclobutylethyl]amino}-7-methyl-6-[4-(1-methylethyl)pyridin-2-yl]-5-[4-(trifluoromethyl)benzyl]-5H-pyrrolo[3,2-d]pyrimidine-2-carboxylic acid] | 50 nM
13 | Cc1cccc(-c2cc3nc(C(=O)O)nc(N[C@H](C)C4CCC4)c3n2Cc2ccc(C(F)(F)F)cc2N)c1 [Example 2.1, 5-[2-amino-4-(trifluoromethyl)benzyl]-4-{[(1R)-1-cyclobutylethyl]amino}-6-(3-methylphenyl)-5H-pyrrolo[3,2-d]pyrimidine-2-carboxylic acid] | 11 nM
14 | Cc1cccc(-c2cc3nc(C(=O)O)nc(N[C@H](C)C4CCC4)c3n2Cc2ccc(C(F)(F)F)cn2)c1 [Example 2.2, 4-{[(1R)-1-cyclobutylethyl]amino}-6-(3-methylphenyl)-5-{[5-(trifluoromethyl)pyridin-2-yl]methyl}-5H-pyrrolo[3,2-d]pyrimidine-2-carboxylic acid] | 844 nM
15 | Cc1cccc(-c2cc3nc(C(=O)O)nc(N[C@H](C)C4CCC4)c3n2Cc2ccc(OC(F)(F)F)cc2)c1 [Example 2.3, 4-{[(1R)-1-cyclobutylethyl]amino}-6-(3-methylphenyl)-5-[4-(trifluoromethoxy)benzyl]-5H-pyrrolo[3,2-d]pyrimidine-2-carboxylic acid] | 348 nM
16 | Cc1cccc(-c2cc3nc(C(=O)O)nc(N[C@H](C)C4CCC4)c3n2Cc2ccc(OC(F)(F)F)c(F)c2)c1 [Example 2.4, 4-{[(1R)-1-cyclobutylethyl]amino}-5-[3-fluoro-4-(trifluoromethoxy)benzyl]-6-(3-methylphenyl)-5H-pyrrolo[3,2-d]pyrimidine-2-carboxylic acid] | 267 nM
17 | COc1cc(OC(F)(F)F)ccc1Cn1c(-c2cccc(C)c2)cc2nc(C(=O)O)nc(N[C@H](C)C3CCC3)c21 [Example 2.5, 4-{[(1R)-1-cyclobutylethyl]amino}-5-[2-methoxy-4-(trifluoromethoxy)benzyl]-6-(3-methylphenyl)-5H-pyrrolo[3,2-d]pyrimidine-2-carboxylic acid] | 4370 nM
18 | Cc1cccc(-c2cc3nc(C(=O)O)nc(N[C@H](C)C4CCC4)c3n2Cc2ccc(OC(F)F)cc2)c1 [Example 2.6, 4-{[(1R)-1-cyclobutylethyl]amino}-5-[4-(difluoromethoxy)benzyl]-6-(3-methylphenyl)-5H-pyrrolo[3,2-d]pyrimidine-2-carboxylic acid] | 1780 nM
19 | Cc1cccc(-c2cc3nc(C(=O)O)nc(N[C@H](C)C4CCC4)c3n2Cc2ccc(C(F)(F)F)c(F)c2)c1 [Example 2.7, 4-{[(1R)-1-cyclobutylethyl]amino}-5-[3-fluoro-4-(trifluoromethyl)benzyl]-6-(3-methylphenyl)-5H-pyrrolo[3,2-d]pyrimidine-2-carboxylic acid] | 87 nM
20 | COc1ccc(Cn2c(-c3cccc(C)c3)cc3nc(C(=O)O)nc(N[C@H](C)C4CCC4)c32)cc1 [Example 2.8, 4-{[(1R)-1-cyclobutylethyl]amino}-5-(4-methoxybenzyl)-6-(3-methylphenyl)-5H-pyrrolo[3,2-d]pyrimidine-2-carboxylic acid] | 6190 nM
